Measurements from the supplement of paper PMC4862054.

tested on: Hs578T; assay: normalised viability (% of control), CellTiter-Blue; higher = more viable cells (about 100 = DMSO control); settings: 10 nM; incubation time: 72 h
Protocol: (§1)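 DSRT, CellTiter-Blue viability, 72 h incubation. Signal is normalised to DMSO and benzethonium chloride controls. Value is the normalised response at dose 3.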

Row | Structure (SMILES) | normalised viability [%]
1 | COc1ncc(-c2ccc3nccc(-c4ccnnc4)c3c2)cc1NS(=O)(=O)c1ccc(F)cc1F | 76.8
2 | Cn1c(=O)c(F)c(Nc2ccc(I)cc2F)c2c(=O)n(C[C@@H](O)CO)cnc21 [TAK-733] | 86.8
3 | CCS(=O)(=O)c1cccc(-c2cc(C(=O)NC3CCN(C)CC3)c(C)c3[nH]c4ncc(C)cc4c23)c1 [TAK-901] | 131
4 | COc1cccc2c1C(=O)c1c(O)c3c(c(O)c1C2=O)C[C@@](O)(C(C)=O)C[C@@H]3O[C@H]1C[C@H](N)[C@H](O)[C@H](C)O1 [Daunorubicin] | 85.9
5 | CC(C)C[C@H](NC(=O)[C@H](Cc1ccccc1)NC(=O)c1cnccn1)B(O)O [Bortezomib] | 87.6

same assay, conditions: 100 nM; incubation time: 72 h

Row | Structure (SMILES) | normalised viability [%]
6 | COc1cc(Nc2ncc(F)c(Nc3ccc4c(n3)NC(=O)C(C)(C)O4)n2)cc(OC)c1OC [R406] | 112
7 | COC1=CC(c2cc3ccccc3[nH]2)=N/C1=C\c1[nH]c(C)cc1C [Obatoclax] | 73.4
8 | O=c1[nH]cc(F)c(=O)[nH]1 [Fluorouracil] | 115
9 | CN1CCN(c2ccc3nc(-c4c(N)c5c(F)cccc5[nH]c4=O)[nH]c3c2)CC1 [Dovitinib] | 87
10 | O=c1[nH]c(=O)n([C@H]2C[C@H](O)[C@@H](CO)O2)cc1F [Floxuridine] | 85.8
11 | O=C(c1ccc(OCCN2CCCCC2)cc1)c1c(-c2ccc(O)cc2)sc2cc(O)ccc12 [Raloxifene] | 104

same assay, conditions: 1000 nM; incubation time: 72 h

Row | Structure (SMILES) | normalised viability [%]
12 | CS(=O)(=O)OCCCCOS(C)(=O)=O [Busulfan] | 91.2

tested on: CAL-51; assay: as above; settings: 1 nM; incubation time: 72 h
Protocol: as §1

Row | Structure (SMILES) | normalised viability [%]
13 | COc1ncc(-c2ccc3nccc(-c4ccnnc4)c3c2)cc1NS(=O)(=O)c1ccc(F)cc1F | 85.7
14 | Cn1c(=O)c(F)c(Nc2ccc(I)cc2F)c2c(=O)n(C[C@@H](O)CO)cnc21 [TAK-733] | 103
15 | CCS(=O)(=O)c1cccc(-c2cc(C(=O)NC3CCN(C)CC3)c(C)c3[nH]c4ncc(C)cc4c23)c1 [TAK-901] | 91.7
16 | COc1cccc2c1C(=O)c1c(O)c3c(c(O)c1C2=O)C[C@@](O)(C(C)=O)C[C@@H]3O[C@H]1C[C@H](N)[C@H](O)[C@H](C)O1 [Daunorubicin] | 99.8
17 | CC(C)C[C@H](NC(=O)[C@H](Cc1ccccc1)NC(=O)c1cnccn1)B(O)O [Bortezomib] | 99.9

same assay, conditions: 10 nM; incubation time: 72 h

Row | Structure (SMILES) | normalised viability [%]
18 | COc1cc(Nc2ncc(F)c(Nc3ccc4c(n3)NC(=O)C(C)(C)O4)n2)cc(OC)c1OC [R406] | 107
19 | COC1=CC(c2cc3ccccc3[nH]2)=N/C1=C\c1[nH]c(C)cc1C [Obatoclax] | 109
20 | O=c1[nH]cc(F)c(=O)[nH]1 [Fluorouracil] | 105
21 | CN1CCN(c2ccc3nc(-c4c(N)c5c(F)cccc5[nH]c4=O)[nH]c3c2)CC1 [Dovitinib] | 111
22 | O=c1[nH]c(=O)n([C@H]2C[C@H](O)[C@@H](CO)O2)cc1F [Floxuridine] | 91.8
23 | O=C(c1ccc(OCCN2CCCCC2)cc1)c1c(-c2ccc(O)cc2)sc2cc(O)ccc12 [Raloxifene] | 99.6

same assay, conditions: 100 nM; incubation time: 72 h

Row | Structure (SMILES) | normalised viability [%]
24 | CS(=O)(=O)OCCCCOS(C)(=O)=O [Busulfan] | 95.3

tested on: HCC1937; assay: as above; settings: 10 nM; incubation time: 72 h
Protocol: as §1

Row | Structure (SMILES) | normalised viability [%]
25 | COc1ncc(-c2ccc3nccc(-c4ccnnc4)c3c2)cc1NS(=O)(=O)c1ccc(F)cc1F | 78.5
26 | Cn1c(=O)c(F)c(Nc2ccc(I)cc2F)c2c(=O)n(C[C@@H](O)CO)cnc21 [TAK-733] | 100
27 | CCS(=O)(=O)c1cccc(-c2cc(C(=O)NC3CCN(C)CC3)c(C)c3[nH]c4ncc(C)cc4c23)c1 [TAK-901] | 120
28 | COc1cccc2c1C(=O)c1c(O)c3c(c(O)c1C2=O)C[C@@](O)(C(C)=O)C[C@@H]3O[C@H]1C[C@H](N)[C@H](O)[C@H](C)O1 [Daunorubicin] | 77.9
29 | CC(C)C[C@H](NC(=O)[C@H](Cc1ccccc1)NC(=O)c1cnccn1)B(O)O [Bortezomib] | 19.6

same assay, conditions: 100 nM; incubation time: 72 h

Row | Structure (SMILES) | normalised viability [%]
30 | COc1cc(Nc2ncc(F)c(Nc3ccc4c(n3)NC(=O)C(C)(C)O4)n2)cc(OC)c1OC [R406] | 125
31 | COC1=CC(c2cc3ccccc3[nH]2)=N/C1=C\c1[nH]c(C)cc1C [Obatoclax] | 45.9
32 | O=c1[nH]cc(F)c(=O)[nH]1 [Fluorouracil] | 104
33 | CN1CCN(c2ccc3nc(-c4c(N)c5c(F)cccc5[nH]c4=O)[nH]c3c2)CC1 [Dovitinib] | 95.6
34 | O=c1[nH]c(=O)n([C@H]2C[C@H](O)[C@@H](CO)O2)cc1F [Floxuridine] | 84.5
35 | O=C(c1ccc(OCCN2CCCCC2)cc1)c1c(-c2ccc(O)cc2)sc2cc(O)ccc12 [Raloxifene] | 110

same assay, conditions: 1000 nM; incubation time: 72 h

Row | Structure (SMILES) | normalised viability [%]
36 | CS(=O)(=O)OCCCCOS(C)(=O)=O [Busulfan] | 94.6

tested on: CAL-85-1; assay: drug sensitivity score (DSS), CellTiter-Blue viability (DSS (AUC-based score)); higher = stronger viability inhibition; extreme values may be limits of the assay; settings: incubation time: 72 h
Protocol: (§2)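 DSRT with the CellTiter-Blue (resazurin reduction) viability readout, fluorescence 560/590 nm, 72 h incubation. Plates were normalised to DMSO and benzethonium chloride controls. DSS is computed from the area under the fitted dose-response curve (5 or 9 concentrations).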

Row | Structure (SMILES) | drug sensitivity score
37 | COc1ncc(-c2ccc3nccc(-c4ccnnc4)c3c2)cc1NS(=O)(=O)c1ccc(F)cc1F | 16.8
38 | Cn1c(=O)c(F)c(Nc2ccc(I)cc2F)c2c(=O)n(C[C@@H](O)CO)cnc21 [TAK-733] | 7.69
39 | CCS(=O)(=O)c1cccc(-c2cc(C(=O)NC3CCN(C)CC3)c(C)c3[nH]c4ncc(C)cc4c23)c1 [TAK-901] | 5.05
40 | COc1cc(Nc2ncc(F)c(Nc3ccc4c(n3)NC(=O)C(C)(C)O4)n2)cc(OC)c1OC [R406] | 0
41 | COC1=CC(c2cc3ccccc3[nH]2)=N/C1=C\c1[nH]c(C)cc1C [Obatoclax] | 8.55
42 | CS(=O)(=O)OCCCCOS(C)(=O)=O [Busulfan] | 0
43 | COc1cccc2c1C(=O)c1c(O)c3c(c(O)c1C2=O)C[C@@](O)(C(C)=O)C[C@@H]3O[C@H]1C[C@H](N)[C@H](O)[C@H](C)O1 [Daunorubicin] | 5.47
44 | O=c1[nH]cc(F)c(=O)[nH]1 [Fluorouracil] | 5.28
45 | CN1CCN(c2ccc3nc(-c4c(N)c5c(F)cccc5[nH]c4=O)[nH]c3c2)CC1 [Dovitinib] | 0
46 | O=c1[nH]c(=O)n([C@H]2C[C@H](O)[C@@H](CO)O2)cc1F [Floxuridine] | 14
47 | CC(C)C[C@H](NC(=O)[C@H](Cc1ccccc1)NC(=O)c1cnccn1)B(O)O [Bortezomib] | 24.8
48 | O=C(c1ccc(OCCN2CCCCC2)cc1)c1c(-c2ccc(O)cc2)sc2cc(O)ccc12 [Raloxifene] | 0

tested on: DU-4475; assay: as above; settings: incubation time: 72 h
Protocol: as §2

Row | Structure (SMILES) | drug sensitivity score
49 | COc1ncc(-c2ccc3nccc(-c4ccnnc4)c3c2)cc1NS(=O)(=O)c1ccc(F)cc1F | 10.8
50 | Cn1c(=O)c(F)c(Nc2ccc(I)cc2F)c2c(=O)n(C[C@@H](O)CO)cnc21 [TAK-733] | 29.3
51 | CCS(=O)(=O)c1cccc(-c2cc(C(=O)NC3CCN(C)CC3)c(C)c3[nH]c4ncc(C)cc4c23)c1 [TAK-901] | 3.52
52 | COc1cc(Nc2ncc(F)c(Nc3ccc4c(n3)NC(=O)C(C)(C)O4)n2)cc(OC)c1OC [R406] | 0
53 | COC1=CC(c2cc3ccccc3[nH]2)=N/C1=C\c1[nH]c(C)cc1C [Obatoclax] | 2.24
54 | CS(=O)(=O)OCCCCOS(C)(=O)=O [Busulfan] | 0
55 | COc1cccc2c1C(=O)c1c(O)c3c(c(O)c1C2=O)C[C@@](O)(C(C)=O)C[C@@H]3O[C@H]1C[C@H](N)[C@H](O)[C@H](C)O1 [Daunorubicin] | 14
56 | O=c1[nH]cc(F)c(=O)[nH]1 [Fluorouracil] | 1.34
57 | CN1CCN(c2ccc3nc(-c4c(N)c5c(F)cccc5[nH]c4=O)[nH]c3c2)CC1 [Dovitinib] | 0
58 | O=c1[nH]c(=O)n([C@H]2C[C@H](O)[C@@H](CO)O2)cc1F [Floxuridine] | 0
59 | CC(C)C[C@H](NC(=O)[C@H](Cc1ccccc1)NC(=O)c1cnccn1)B(O)O [Bortezomib] | 20.9
60 | O=C(c1ccc(OCCN2CCCCC2)cc1)c1c(-c2ccc(O)cc2)sc2cc(O)ccc12 [Raloxifene] | 0

tested on: SK-BR-3; assay: as above; settings: incubation time: 72 h
Protocol: as §2

Row | Structure (SMILES) | drug sensitivity score
61 | COc1ncc(-c2ccc3nccc(-c4ccnnc4)c3c2)cc1NS(=O)(=O)c1ccc(F)cc1F | 25
62 | Cn1c(=O)c(F)c(Nc2ccc(I)cc2F)c2c(=O)n(C[C@@H](O)CO)cnc21 [TAK-733] | 0
63 | CCS(=O)(=O)c1cccc(-c2cc(C(=O)NC3CCN(C)CC3)c(C)c3[nH]c4ncc(C)cc4c23)c1 [TAK-901] | 0
64 | COc1cc(Nc2ncc(F)c(Nc3ccc4c(n3)NC(=O)C(C)(C)O4)n2)cc(OC)c1OC [R406] | 0
65 | COC1=CC(c2cc3ccccc3[nH]2)=N/C1=C\c1[nH]c(C)cc1C [Obatoclax] | 20.1
66 | CS(=O)(=O)OCCCCOS(C)(=O)=O [Busulfan] | 0
67 | COc1cccc2c1C(=O)c1c(O)c3c(c(O)c1C2=O)C[C@@](O)(C(C)=O)C[C@@H]3O[C@H]1C[C@H](N)[C@H](O)[C@H](C)O1 [Daunorubicin] | 13.1
68 | O=c1[nH]cc(F)c(=O)[nH]1 [Fluorouracil] | 8.26
69 | CN1CCN(c2ccc3nc(-c4c(N)c5c(F)cccc5[nH]c4=O)[nH]c3c2)CC1 [Dovitinib] | 0
70 | O=c1[nH]c(=O)n([C@H]2C[C@H](O)[C@@H](CO)O2)cc1F [Floxuridine] | 17.9
71 | CC(C)C[C@H](NC(=O)[C@H](Cc1ccccc1)NC(=O)c1cnccn1)B(O)O [Bortezomib] | 25.5
72 | O=C(c1ccc(OCCN2CCCCC2)cc1)c1c(-c2ccc(O)cc2)sc2cc(O)ccc12 [Raloxifene] | 0

tested on: CAL-120; assay: as above; settings: incubation time: 72 h
Protocol: as §2

Row | Structure (SMILES) | drug sensitivity score
73 | COc1ncc(-c2ccc3nccc(-c4ccnnc4)c3c2)cc1NS(=O)(=O)c1ccc(F)cc1F | 16.3
74 | Cn1c(=O)c(F)c(Nc2ccc(I)cc2F)c2c(=O)n(C[C@@H](O)CO)cnc21 [TAK-733] | 4.61
75 | CCS(=O)(=O)c1cccc(-c2cc(C(=O)NC3CCN(C)CC3)c(C)c3[nH]c4ncc(C)cc4c23)c1 [TAK-901] | 10
76 | COc1cc(Nc2ncc(F)c(Nc3ccc4c(n3)NC(=O)C(C)(C)O4)n2)cc(OC)c1OC [R406] | 0
77 | COC1=CC(c2cc3ccccc3[nH]2)=N/C1=C\c1[nH]c(C)cc1C [Obatoclax] | 25.3
78 | CS(=O)(=O)OCCCCOS(C)(=O)=O [Busulfan] | 0
79 | COc1cccc2c1C(=O)c1c(O)c3c(c(O)c1C2=O)C[C@@](O)(C(C)=O)C[C@@H]3O[C@H]1C[C@H](N)[C@H](O)[C@H](C)O1 [Daunorubicin] | 13.1
80 | O=c1[nH]cc(F)c(=O)[nH]1 [Fluorouracil] | 2.97
81 | CN1CCN(c2ccc3nc(-c4c(N)c5c(F)cccc5[nH]c4=O)[nH]c3c2)CC1 [Dovitinib] | 0
82 | O=c1[nH]c(=O)n([C@H]2C[C@H](O)[C@@H](CO)O2)cc1F [Floxuridine] | 19.1
83 | CC(C)C[C@H](NC(=O)[C@H](Cc1ccccc1)NC(=O)c1cnccn1)B(O)O [Bortezomib] | 26.4
84 | O=C(c1ccc(OCCN2CCCCC2)cc1)c1c(-c2ccc(O)cc2)sc2cc(O)ccc12 [Raloxifene] | 0
